Measured values reported in the supplement of paper PMC10307832.

Columns and labels:
Assay in all cases: relative viability (nuclei count vs DMSO), 5 days (fraction); higher = more cells survive
Linifanib = compound: Cc1ccc(F)c(NC(=O)Nc2ccc(-c3cccc4[nH]nc(N)c34)cc2)c1 [Linifanib]
In short: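 Vehicle-anchored 1536-well plates of lung cancer cell lines, held overnight at 37 °C, were pinned with five library-drug doses (not always all listed) spaced by √10. No medium change followed over the next 5 days, after which the cells were fixed, permeabilised and Hoechst-stained together and imaged at 4×. Nuclei were counted with MetaXpress, and viability is treated-well nuclei over vehicle-well nuclei, taken as a median across plates. Plates passed with control CV below 25% and at least one doubling.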

Linifanib + Olaparib = compound: Cc1ccc(F)c(NC(=O)Nc2ccc(-c3cccc4[nH]nc(N)c34)cc2)c1 [Linifanib] + O=C(c1cc(Cc2n[nH]c(=O)c3ccccc23)ccc1F)N1CCN(C(=O)C2CC2)CC1 [Olaparib] (partner 8 µM)
In short: (§1)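 A single step with final 0.05% Triton X-100, 1% formaldehyde and 1 ug/ml Hoechst fixed the cells and stained nuclei 5 days after treatment. Lung cancer cell lines in 1536-well plates had been treated by pin tool the day after seeding with one drug alone or a fixed anchor-drug dose plus five library-drug doses (not always all listed) in √10 steps, and nuclei were counted on 4× images. Relative viability is the ratio of nuclei in treated wells to nuclei in vehicle wells, taken as the median of duplicate plates.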

Linifanib + Lapatinib = compound: Cc1ccc(F)c(NC(=O)Nc2ccc(-c3cccc4[nH]nc(N)c34)cc2)c1 [Linifanib] + CS(=O)(=O)CCNCc1ccc(-c2ccc3ncnc(Nc4ccc(OCc5cccc(F)c5)c(Cl)c4)c3c2)o1 [Lapatinib] (partner 2 µM)
In short: as §1

Linifanib + Crizotinib = compound: Cc1ccc(F)c(NC(=O)Nc2ccc(-c3cccc4[nH]nc(N)c34)cc2)c1 [Linifanib] + C[C@@H](Oc1cc(-c2cnn(C3CCNCC3)c2)cnc1N)c1c(Cl)ccc(F)c1Cl [Crizotinib] (partner 1 µM)
In short: as §1

Linifanib + Navitoclax = compound: Cc1ccc(F)c(NC(=O)Nc2ccc(-c3cccc4[nH]nc(N)c34)cc2)c1 [Linifanib] + CC1(C)CCC(c2ccc(Cl)cc2)=C(CN2CCN(c3ccc(C(=O)NS(=O)(=O)c4ccc(N[C@H](CCN5CCOCC5)CSc5ccccc5)c(S(=O)(=O)C(F)(F)F)c4)cc3)CC2)C1 [Navitoclax] (partner 0.5 µM)
In short: as §1

Linifanib + Foretinib = compound: Cc1ccc(F)c(NC(=O)Nc2ccc(-c3cccc4[nH]nc(N)c34)cc2)c1 [Linifanib] + COc1cc2c(Oc3ccc(NC(=O)C4(C(=O)Nc5ccc(F)cc5)CC4)cc3F)ccnc2cc1OCCCN1CCOCC1 [Foretinib] (partner 0.25 µM)
In short: as §1

Linifanib + Linsitinib = compound: Cc1ccc(F)c(NC(=O)Nc2ccc(-c3cccc4[nH]nc(N)c34)cc2)c1 [Linifanib] + C[C@]1(O)C[C@@H](c2nc(-c3ccc4ccc(-c5ccccc5)nc4c3)c3c(N)nccn32)C1 [Linsitinib] (partner 1 µM)
In short: as §1

Linifanib + Alpelisib = compound: Cc1ccc(F)c(NC(=O)Nc2ccc(-c3cccc4[nH]nc(N)c34)cc2)c1 [Linifanib] + Cc1nc(NC(=O)N2CCC[C@H]2C(N)=O)sc1-c1ccnc(C(C)(C)C(F)(F)F)c1 [Alpelisib] (partner 2 µM)
In short: as §1

Linifanib + Bortezomib = compound: Cc1ccc(F)c(NC(=O)Nc2ccc(-c3cccc4[nH]nc(N)c34)cc2)c1 [Linifanib] + CC(C)C[C@H](NC(=O)[C@H](Cc1ccccc1)NC(=O)c1cnccn1)B(O)O [Bortezomib] (partner 0.002 µM)
In short: as §1

Linifanib + Pictilisib = compound: Cc1ccc(F)c(NC(=O)Nc2ccc(-c3cccc4[nH]nc(N)c34)cc2)c1 [Linifanib] + CS(=O)(=O)N1CCN(Cc2cc3nc(-c4cccc5[nH]ncc45)nc(N4CCOCC4)c3s2)CC1 [Pictilisib] (partner 1 µM)
In short: as §1

Linifanib + Phenformin = compound: Cc1ccc(F)c(NC(=O)Nc2ccc(-c3cccc4[nH]nc(N)c34)cc2)c1 [Linifanib] + N=C(N)NC(=N)NCCc1ccccc1 [Phenformin] (partner 250 µM)
In short: as §1

Linifanib + Luminespib = compound: Cc1ccc(F)c(NC(=O)Nc2ccc(-c3cccc4[nH]nc(N)c34)cc2)c1 [Linifanib] + CCNC(=O)c1noc(-c2cc(C(C)C)c(O)cc2O)c1-c1ccc(CN2CCOCC2)cc1 [Luminespib] (partner 0.01 µM)
In short: as §1

Linifanib + Dasatinib = compound: Cc1ccc(F)c(NC(=O)Nc2ccc(-c3cccc4[nH]nc(N)c34)cc2)c1 [Linifanib] + Cc1nc(Nc2ncc(C(=O)Nc3c(C)cccc3Cl)s2)cc(N2CCN(CCO)CC2)n1 [Dasatinib] (partner 0.075 µM)
In short: as §1

Linifanib + Pemetrexed = compound: Cc1ccc(F)c(NC(=O)Nc2ccc(-c3cccc4[nH]nc(N)c34)cc2)c1 [Linifanib] + Nc1nc2[nH]cc(CCc3ccc(C(=O)N[C@@H](CCC(=O)O)C(=O)O)cc3)c2c(=O)[nH]1 [Pemetrexed] (partner 0.2 µM)
In short: as §1

Linifanib + OSI-027 = compound: Cc1ccc(F)c(NC(=O)Nc2ccc(-c3cccc4[nH]nc(N)c34)cc2)c1 [Linifanib] + COc1cccc2cc(-c3nc([C@H]4CC[C@H](C(=O)O)CC4)n4ncnc(N)c34)[nH]c12 [OSI-027] (partner 0.5 µM)
In short: as §1

Linifanib + AZD7762 = compound: Cc1ccc(F)c(NC(=O)Nc2ccc(-c3cccc4[nH]nc(N)c34)cc2)c1 [Linifanib] + NC(=O)Nc1cc(-c2cccc(F)c2)sc1C(=O)N[C@H]1CCCNC1 [AZD7762] (partner 0.2 µM)
In short: as §1

Cell Line | relative viability (Linifanib; 0.03162 µM) | relative viability (Linifanib; 0.1 µM) | relative viability (Linifanib; 0.3162 µM) | relative viability (Linifanib + Lapatinib; first compound 0.1 µM) | relative viability (Linifanib + Lapatinib; first compound 0.3162 µM) | relative viability (Linifanib + Crizotinib; first compound 0.1 µM) | relative viability (Linifanib + Crizotinib; first compound 0.3162 µM) | relative viability (Linifanib + Foretinib; first compound 0.1 µM) | relative viability (Linifanib + Foretinib; first compound 0.3162 µM) | relative viability (Linifanib + Linsitinib; first compound 0.03162 µM) | relative viability (Linifanib + Linsitinib; first compound 0.1 µM) | relative viability (Linifanib + Linsitinib; first compound 0.3162 µM) | relative viability (Linifanib + Alpelisib; first compound 0.03162 µM) | relative viability (Linifanib + Alpelisib; first compound 0.1 µM) | relative viability (Linifanib + Alpelisib; first compound 0.3162 µM) | relative viability (Linifanib + Bortezomib; first compound 0.03162 µM) | relative viability (Linifanib + Bortezomib; first compound 0.1 µM) | relative viability (Linifanib + Bortezomib; first compound 0.3162 µM) | relative viability (Linifanib + Pictilisib; first compound 0.03162 µM) | relative viability (Linifanib + Pictilisib; first compound 0.1 µM) | other results
Calu-6 | 1.05 | 1.05 | 0.995 | 1.19 | 1 | 0.768 | 0.826 | 0.95 | 0.881 | 1.01 | 0.919 | 0.969 | 1.08 | 1.05 | 1.01 | 0.978 | 1.15 | 1.07 | 0.93 | 0.995 | relative viability (Linifanib + Olaparib; first compound 0.03162 µM): 0.539; relative viability (Linifanib + Olaparib; first compound 0.1 µM): 0.602; relative viability (Linifanib + Olaparib; first compound 0.3162 µM): 0.565; relative viability (Linifanib + Lapatinib; first compound 0.03162 µM): 1.12; relative viability (Linifanib + Crizotinib; first compound 0.03162 µM): 0.815; relative viability (Linifanib + Navitoclax; first compound 0.03162 µM): 0.888; relative viability (Linifanib + Navitoclax; first compound 0.1 µM): 0.863; relative viability (Linifanib + Navitoclax; first compound 0.3162 µM): 0.873; relative viability (Linifanib + Foretinib; first compound 0.03162 µM): 0.812; relative viability (Linifanib + Pictilisib; first compound 0.3162 µM): 0.892
NCI-H1563 | 0.904 | 1.04 | 1.02 | 1.05 | 0.913 | 0.852 | 0.879 | 0.968 | 0.887 | 1.14 | 1.33 | 1.08 | 0.901 | 0.956 | 0.956 | 0.952 | 0.87 | 0.812 | 0.669 | 0.665 | relative viability (Linifanib + Phenformin; first compound 0.03162 µM): 0.669; relative viability (Linifanib + Phenformin; first compound 0.1 µM): 0.691; relative viability (Linifanib + Phenformin; first compound 0.3162 µM): 0.605; relative viability (Linifanib + Luminespib; first compound 0.03162 µM): 0.558; relative viability (Linifanib + Luminespib; first compound 0.1 µM): 0.504; relative viability (Linifanib + Luminespib; first compound 0.3162 µM): 0.512; relative viability (Linifanib + Dasatinib; first compound 0.03162 µM): 0.452; relative viability (Linifanib + Dasatinib; first compound 0.1 µM): 0.484; relative viability (Linifanib + Dasatinib; first compound 0.3162 µM): 0.496; relative viability (Linifanib + Lapatinib; first compound 0.03162 µM): 0.963; relative viability (Linifanib + Crizotinib; first compound 0.03162 µM): 0.862; relative viability (Linifanib + Foretinib; first compound 0.03162 µM): 0.954; relative viability (Linifanib + Pemetrexed; first compound 0.03162 µM): 0.803; relative viability (Linifanib + Pemetrexed; first compound 0.1 µM): 0.911; relative viability (Linifanib + Pemetrexed; first compound 0.3162 µM): 0.692; relative viability (Linifanib + OSI-027; first compound 0.03162 µM): 0.718; relative viability (Linifanib + OSI-027; first compound 0.1 µM): 0.814; relative viability (Linifanib + OSI-027; first compound 0.3162 µM): 0.716; relative viability (Linifanib + Pictilisib; first compound 0.3162 µM): 0.629
NCI-H1299 | 1.02 | 1.02 | 1.03 | 0.95 | 0.994 | 0.956 | 0.97 | 1.11 | 1.04 | 0.975 | 0.996 | 0.998 | 1.11 | 1.02 | 1.06 | 1.03 | 1.01 | 1.02 | 0.575 | 0.885 | relative viability (Linifanib + Olaparib; first compound 0.03162 µM): 0.978; relative viability (Linifanib + Olaparib; first compound 0.1 µM): 0.958; relative viability (Linifanib + Olaparib; first compound 0.3162 µM): 0.959; relative viability (Linifanib + Lapatinib; first compound 0.03162 µM): 0.951; relative viability (Linifanib + Crizotinib; first compound 0.03162 µM): 0.899; relative viability (Linifanib + Navitoclax; first compound 0.03162 µM): 1.06; relative viability (Linifanib + Navitoclax; first compound 0.1 µM): 1.08; relative viability (Linifanib + Navitoclax; first compound 0.3162 µM): 1; relative viability (Linifanib + Foretinib; first compound 0.03162 µM): 1.1; relative viability (Linifanib + Pictilisib; first compound 0.3162 µM): 0.829
EBC-1 | 1.02 | 1.14 | 0.969 | 0.21 | 0.214 | 0.208 | 0.224 | 0.103 | 0.112 | 0.996 | 0.864 | 0.731 | 0.809 | 1.06 | 0.791 | 0.551 | 0.628 | 0.574 | 0.372 | 0.486 | relative viability (Linifanib + Olaparib; first compound 0.03162 µM): 0.698; relative viability (Linifanib + Olaparib; first compound 0.1 µM): 0.757; relative viability (Linifanib + Olaparib; first compound 0.3162 µM): 0.73; relative viability (Linifanib + Lapatinib; first compound 0.03162 µM): 0.207; relative viability (Linifanib + Crizotinib; first compound 0.03162 µM): 0.205; relative viability (Linifanib + Navitoclax; first compound 0.03162 µM): 0.472; relative viability (Linifanib + Navitoclax; first compound 0.1 µM): 0.412; relative viability (Linifanib + Navitoclax; first compound 0.3162 µM): 0.387; relative viability (Linifanib + Foretinib; first compound 0.03162 µM): 0.115; relative viability (Linifanib + Pictilisib; first compound 0.3162 µM): 0.477
NCI-H1703 | 0.219 | 0.524 | 0.213 | 0.438 | 0.267 | 0.46 | 0.215 | 0.345 | 0.294 | 0.141 | 0.27 | 0.129 | 0.205 | 0.293 | 0.158 | 0.175 | 0.243 | 0.154 | 0.223 | 0.211 | relative viability (Linifanib + Olaparib; first compound 0.03162 µM): 0.151; relative viability (Linifanib + Olaparib; first compound 0.1 µM): 0.269; relative viability (Linifanib + Olaparib; first compound 0.3162 µM): 0.125; relative viability (Linifanib + Navitoclax; first compound 0.03162 µM): 0.277; relative viability (Linifanib + Navitoclax; first compound 0.1 µM): 0.398; relative viability (Linifanib + Navitoclax; first compound 0.3162 µM): 0.257; relative viability (Linifanib + AZD7762; first compound 0.1 µM): 0.147; relative viability (Linifanib + AZD7762; first compound 0.3162 µM): 0.118; relative viability (Linifanib + Pictilisib; first compound 0.3162 µM): 0.242
